Data from US20080214606A1, “Methods for the Identification and Use of Compounds Suitable for the Treatment of Drug Resistant Cancer Cells” (The Government of the United States of America as …, priority 2004, published 2008).
“Also recorded” adds a separate entry of the source. Read-outs that look alike come from different tables or passages of the source.

Legend:
ABCC5 = molecular target: T1, ABCC5 (Homo sapiens, UniProt O15440); experiment: Correlation of ABCC5 expression with drug sensitivity across the NCI-60; assay type: cell-based; details: Pearson correlation of ABCC5 expression with sensitivity of the 60 cell lines; 1429 compounds; inverse, p < 0.0001
T1 construct: profiled in 60 diverse cancer cell lines (the NCI-60) using real-time RT-PCR; endogenous in cells; host or cells: NCI-60 human cancer cell lines
Experimental: (§1) Expression levels are measured by real-time quantitative RT-PCR using the LightCycler RNA Amplification SYBR Green kit and a LightCycler machine (Roche Biochemicals, Indianapolis, Ind.). […] When possible, the amplicons are designed to encompass exon-intron boundaries to avoid amplification of genomic DNA. Since the Syber Green assay detects accumulation of double stranded DNA, primers are selected (from a battery consisting of about 200 primers) that amplified a single product of the correct size.
(§2) RT-PCR is carried out on 150 ng total RNA, in the presence of 250 nM specific primers. Following reverse transcription (20 min at 50° C.), the PCR reaction consists of 45 cycles of denaturation (15 sec at 95° C.), annealing (30 sec at 58° C.), and elongation (30 sec at 72° C.). No-template (water) reaction mixtures are prepared as negative controls.
(§3) During PCR amplification, fluorescence emission is measured and recorded in real time by the LightCycler. Crossing point values are calculated, using the LightCycler software package, by the Fit Points analysis method, with baseline fluorescence set at 1. The SyberGreen assay measures accumulation of double-stranded products, and the appearance of primer dimers limits quantitation at high cycle numbers. The specificity of amplified products is verified by melting-curve analysis and agarose gel electrophoresis (not shown). The raw results are expressed as number of cycles to reach the crossing point. If the desired product is not detected, the corresponding value is adjusted to crossing points indicating no expression. To assess the contribution of experimental artifacts, selected cell lines are assessed in replicate.
(§4) The two are combined to form a joint dataset that includes 1429 compounds.
(§5) In the Benjamini-Hochberg procedure the p-values are computed in the standard way by permutation, assuming that all distributions are exchangeable: the number of values in the permuted data with correlations over a threshold, divided by the number of compounds and by the number of permutations. In this analysis, the False Discovery Rate (q-value) at which each compound would be declared was calculated using the step-up procedure for positively correlated test statistics (again true because all correlations being compared are computed against the same ABC gene): in this procedure the first q-value for the largest correlation is the Bonferroni-corrected p-value for that gene; then further q-values are calculated as qj=max(pj*1429/j, qj-1). This procedure limits the expected proportion of false positives in the list 1, . . . , j to at most qj.

ABCB6 = molecular target: T2, ABCB6 (Homo sapiens, UniProt Q9NP58); experiment: Correlation of ABCB6 expression with drug sensitivity across the NCI-60; assay type: cell-based; details: Pearson correlation of ABCB6 expression with sensitivity of the 60 cell lines; 1429 compounds; inverse, p < 0.0001
T2 construct: profiled in 60 diverse cancer cell lines (the NCI-60) using real-time RT-PCR; endogenous in cells; host or cells: NCI-60 human cancer cell lines
Experimental: (§6) Expression levels are measured by real-time quantitative RT-PCR using the LightCycler RNA Amplification SYBR Green kit and a LightCycler machine (Roche Biochemicals, Indianapolis, Ind.). Specific oligonucleotide probes are designed for each of the ABC transporters using DNAStar Primer Select (DNASTAR Inc.), and they may be synthesized at Lofstrand Laboratories (Gaithersburg, Md.). When possible, the amplicons are designed to encompass exon-intron boundaries to avoid amplification of genomic DNA. Since the Syber Green assay detects accumulation of double stranded DNA, primers are selected (from a battery consisting of about 200 primers) that amplified a single product of the correct size. […]
(§7) During PCR amplification, fluorescence emission is measured and recorded in real time by the LightCycler. Crossing point values are calculated, using the LightCycler software package, by the Fit Points analysis method, with baseline fluorescence set at 1. The SyberGreen assay measures accumulation of double-stranded products, and the appearance of primer dimers limits quantitation at high cycle numbers. […] The raw results are expressed as number of cycles to reach the crossing point. If the desired product is not detected, the corresponding value is adjusted to crossing points indicating no expression. To assess the contribution of experimental artifacts, selected cell lines are assessed in replicate. […]

MDR1 = MDR1 (Homo sapiens, UniProt P08183); details: cited from earlier work; for Interaction with MDR1: tested in various laboratories
ABCB1 = ABCB1 (Homo sapiens, UniProt P08183); experiment: Correlation of ABCB1 expression with drug sensitivity across the NCI-60
In short: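 SYBR Green real-time RT-PCR on 150 ng total RNA with 250 nM primers: RT 20 min at 50 °C, then 45 cycles; expression taken as crossing-point cycle number. Correlated with drug sensitivity of 1429 compounds across the cell panel; permutation p-values with step-down and step-up (FDR q-value) multiple-testing correction.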

ABCA1 = molecular target: T3, ABCA1 (Homo sapiens, UniProt O95477); experiment: Correlation of ABCA1 expression with drug sensitivity across the NCI-60; assay type: cell-based; details: Pearson correlation of ABCA1 expression with sensitivity of the 60 cell lines; 1429 compounds; inverse, p < 0.0001
T3 construct: profiled in 60 diverse cancer cell lines (the NCI-60) using real-time RT-PCR; endogenous in cells; host or cells: NCI-60 human cancer cell lines
Experimental: as §1, §2, §3, §4, §5

ABCA9 = molecular target: T4, ABCA9 (Homo sapiens, UniProt Q8IUA7); experiment: Correlation of ABCA9 expression with drug sensitivity across the NCI-60; assay type: cell-based; details: Pearson correlation of ABCA9 expression with sensitivity of the 60 cell lines; 1429 compounds; inverse, p < 0.0001
T4 construct: profiled in 60 diverse cancer cell lines (the NCI-60) using real-time RT-PCR; endogenous in cells; host or cells: NCI-60 human cancer cell lines
Experimental: as §6, §7

[1] = test system: MDR1-overexpressing KB-V1 cells; experiment: Efflux assay (accumulation of fluorescent NSC 634791, flow cytometry); assay type: cell-based, human
Experimental: The dashed lines indicate the same experiment performed in the presence of 2 μM of the ABCB1 inhibitor, PSC 833 (for KB-3-1, the solid and dashed lines overlap). Values are means ±SE. for representative experiments performed in triplicate. […] The effect of PSC 833 on IC50 values in KB-V1 cells is expressed as a dose modifying factor, DMF=[IC50/IC50+(IC50)PSC833)], where (IC50)PSC833 is the value obtained in the presence of the inhibitor. […] Cells are incubated with 1.74 μM NSC 634791 for 10 min at 37° C. in the presence (peak on the right) or absence (peak on the left) of 2 μM PSC 833.
Trypsinized cells are washed twice in phosphate-buffered saline (PBS). 5×10^5 cells are pre-incubated for 5 min at 37° C. in Iscove's Modified Dulbecco's Medium (Quality Biologicals, Gaithersburg, Md.) with 0.5% dimethyl sulphoxide (DMSO), with or without 2 μM PSC 833. […] Green fluorescence intensity is measured using a FacsCalibur flow cytometer equipped with a 488-nm argon laser (Becton Dickinson Biosciences, San Jose, Calif., USA). […]
To test whether our approach using the NCI-60 does, in fact, identify new substrates, an MTT assay is used to test all top-scoring compounds that were available from DTP for follow-up experiments. […] The intrinsic fluorescence of one of the compounds, NSC 634791, allows for the measurement of the effect of MDR1 activity on its export from cells.

ABCA4 = molecular target: T5, ABCA4 (Homo sapiens, UniProt P78363); experiment: Correlation of ABCA4 expression with drug sensitivity across the NCI-60; assay type: cell-based; details: Pearson correlation of ABCA4 expression with sensitivity of the 60 cell lines; 1429 compounds; inverse, p < 0.0001
T5 construct: profiled in 60 diverse cancer cell lines (the NCI-60) using real-time RT-PCR; endogenous in cells; host or cells: NCI-60 human cancer cell lines
Experimental: (§8) Expression levels are measured by real-time quantitative RT-PCR using the LightCycler RNA Amplification SYBR Green kit and a LightCycler machine (Roche Biochemicals, Indianapolis, Ind.). Specific oligonucleotide probes are designed for each of the ABC transporters using DNAStar Primer Select (DNASTAR Inc.), and they may be synthesized at Lofstrand Laboratories (Gaithersburg, Md.). When possible, the amplicons are designed to encompass exon-intron boundaries to avoid amplification of genomic DNA. Since the Syber Green assay detects accumulation of double stranded DNA, primers are selected (from a battery consisting of about 200 primers) that amplified a single product of the correct size.
as §2, §3, §4
(§9) To control the overall false type 1 error rate, both a step-down procedure (Westfall and Young, 1993, Resampling-Based Multiple Testing: Examples and Methods for p-value Adjustment (New York: Wiley)) and a step-up procedure (Reiner et al., 2003, Bioinformatics 19:368-375) were employed to adjust for multiple testing of all 47 genes simultaneously. […] In this analysis, the False Discovery Rate (q-value) at which each compound would be declared was calculated using the step-up procedure for positively correlated test statistics (again true because all correlations being compared are computed against the same ABC gene): in this procedure the first q-value for the largest correlation is the Bonferroni-corrected p-value for that gene; then further q-values are calculated as qj=max(pj*1429/j, qj-1). […]

ABCC3 = molecular target: T6, ABCC3 (Homo sapiens, UniProt O15438); experiment: Correlation of ABCC3 expression with drug sensitivity across the NCI-60; assay type: cell-based; details: Pearson correlation of ABCC3 expression with sensitivity of the 60 cell lines; 1429 compounds; inverse, p < 0.0001
T6 construct: profiled in 60 diverse cancer cell lines (the NCI-60) using real-time RT-PCR; endogenous in cells; host or cells: NCI-60 human cancer cell lines
Experimental: as §1, §2, §3, §4
To determine quantitatively how well the 47 genes cluster the cell lines by their tissues of origin, a statistical method is employed wherein the kappa statistic is used to indicate how well the observed clusters correspond to the nine tissue-of-origin classifications. […] To control the overall false type 1 error rate, both a step-down procedure (Westfall and Young, 1993, Resampling-Based Multiple Testing: Examples and Methods for p-value Adjustment (New York: Wiley)) and a step-up procedure (Reiner et al., 2003, Bioinformatics 19:368-375) were employed to adjust for multiple testing of all 47 genes simultaneously. In the Benjamini-Hochberg procedure the p-values are computed in the standard way by permutation, assuming that all distributions are exchangeable: the number of values in the permuted data with correlations over a threshold, divided by the number of compounds and by the number of permutations. In this analysis, the False Discovery Rate (q-value) at which each compound would be declared was calculated using the step-up procedure for positively correlated test statistics (again true because all correlations being compared are computed against the same ABC gene): in this procedure the first q-value for the largest correlation is the Bonferroni-corrected p-value for that gene; then further q-values are calculated as qj=max(pj*1429/j, qj-1). This procedure limits the expected proportion of false positives in the list 1, . . . , j to at most qj.

ABCA12 = molecular target: T7, ABCA12 (Homo sapiens, UniProt Q86UK0); experiment: Correlation of ABCA12 expression with drug sensitivity across the NCI-60; assay type: cell-based; details: Pearson correlation of ABCA12 expression with sensitivity of the 60 cell lines; 1429 compounds; inverse, p < 0.0001
T7 construct: profiled in 60 diverse cancer cell lines (the NCI-60) using real-time RT-PCR; endogenous in cells; host or cells: NCI-60 human cancer cell lines
Experimental: as §8, §2, §3, §4, §9

[2] = test system: ABCC2-transfected MDCKII cells; experiment: MTT assay, ABCC2-transfected vs sham-transfected MDCKII cells; assay type: cell-based, dog
Experimental: Panel A is a scatter plot showing the correlation (r) of ABCC2 expression with sensitivity of the 60 cells to NSC 641281 (r=−0.46; 99.99% two-tailed bootstrap confidence interval −0.7987 to −0.0440).
Cell survival is measured by the MTT (3-(4,5-Dimethylthiazol-2-yl)-2,5-diphenyltetrazolium) Assay. Cells are seeded in 100 μl medium at a density of 5000 cells/well in 96 well plates, and serially diluted drug (with or without 2 μM PSC 833) is added the following day in 100 μl medium to give the indicated final concentration. Cells are then incubated for 72 hrs at 37° C. in 5% CO2, and the MTT assay is performed according to the manufacturer's instructions (Molecular Probes, Eugene, Oreg.).
The ABCC (MRP) subfamily is comprised of nine members that transport structurally diverse lipophilic anions and function as drug efflux pumps (Kruh and Belinsky, 2003, Oncogene 22:7537-52). ABCC2-MRP2 is a canalicular efflux pump with a role in the hepatobiliary excretion of bilirubin glucuronide as well as numerous pharmaceuticals. […] One of these compounds, NSC 641281 (shown in FIG. 4, Panel C), was available from DTP for further testing. […]

ABCC1 = molecular target: T8, ABCC1 (Homo sapiens, UniProt P33527); experiment: Correlation of ABCC1 expression with drug sensitivity across the NCI-60; assay type: cell-based; details: Pearson correlation of ABCC1 expression with sensitivity of the 60 cell lines; 1429 compounds; inverse, p < 0.0001
T8 construct: profiled in 60 diverse cancer cell lines (the NCI-60) using real-time RT-PCR; endogenous in cells; host or cells: NCI-60 human cancer cell lines
Experimental: as §1, §2, §3, §4, §5

ABCG2 = molecular target: T9, ABCG2 (Homo sapiens, UniProt Q9UNQ0); experiment: Correlation of ABCG2 expression with drug sensitivity across the NCI-60; assay type: cell-based; details: Pearson correlation of ABCG2 expression with sensitivity of the 60 cell lines; 1429 compounds; inverse, p < 0.0001
T9 construct: endogenous in cells; host or cells: NCI-60 human cancer cell lines
T9 sequence (Q9UNQ0 whole entry): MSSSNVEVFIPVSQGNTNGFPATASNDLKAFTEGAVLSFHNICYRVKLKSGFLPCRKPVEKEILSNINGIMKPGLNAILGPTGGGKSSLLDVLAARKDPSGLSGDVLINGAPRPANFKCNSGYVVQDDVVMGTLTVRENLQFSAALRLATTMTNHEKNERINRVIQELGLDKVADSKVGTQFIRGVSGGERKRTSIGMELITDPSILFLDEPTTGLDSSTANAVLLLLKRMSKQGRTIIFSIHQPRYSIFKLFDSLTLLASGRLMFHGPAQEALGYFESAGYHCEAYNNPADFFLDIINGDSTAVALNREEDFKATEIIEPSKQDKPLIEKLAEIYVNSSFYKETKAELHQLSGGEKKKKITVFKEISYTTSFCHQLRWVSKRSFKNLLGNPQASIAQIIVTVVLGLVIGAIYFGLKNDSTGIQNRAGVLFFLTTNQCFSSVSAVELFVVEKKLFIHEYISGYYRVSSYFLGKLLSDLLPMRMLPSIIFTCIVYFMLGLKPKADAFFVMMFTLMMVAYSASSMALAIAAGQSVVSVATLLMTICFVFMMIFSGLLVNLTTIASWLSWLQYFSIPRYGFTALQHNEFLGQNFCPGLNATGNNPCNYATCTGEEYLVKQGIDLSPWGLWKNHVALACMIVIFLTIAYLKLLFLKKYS
Experimental: as §6, §7

ABCB1, sequence (P08183 whole entry): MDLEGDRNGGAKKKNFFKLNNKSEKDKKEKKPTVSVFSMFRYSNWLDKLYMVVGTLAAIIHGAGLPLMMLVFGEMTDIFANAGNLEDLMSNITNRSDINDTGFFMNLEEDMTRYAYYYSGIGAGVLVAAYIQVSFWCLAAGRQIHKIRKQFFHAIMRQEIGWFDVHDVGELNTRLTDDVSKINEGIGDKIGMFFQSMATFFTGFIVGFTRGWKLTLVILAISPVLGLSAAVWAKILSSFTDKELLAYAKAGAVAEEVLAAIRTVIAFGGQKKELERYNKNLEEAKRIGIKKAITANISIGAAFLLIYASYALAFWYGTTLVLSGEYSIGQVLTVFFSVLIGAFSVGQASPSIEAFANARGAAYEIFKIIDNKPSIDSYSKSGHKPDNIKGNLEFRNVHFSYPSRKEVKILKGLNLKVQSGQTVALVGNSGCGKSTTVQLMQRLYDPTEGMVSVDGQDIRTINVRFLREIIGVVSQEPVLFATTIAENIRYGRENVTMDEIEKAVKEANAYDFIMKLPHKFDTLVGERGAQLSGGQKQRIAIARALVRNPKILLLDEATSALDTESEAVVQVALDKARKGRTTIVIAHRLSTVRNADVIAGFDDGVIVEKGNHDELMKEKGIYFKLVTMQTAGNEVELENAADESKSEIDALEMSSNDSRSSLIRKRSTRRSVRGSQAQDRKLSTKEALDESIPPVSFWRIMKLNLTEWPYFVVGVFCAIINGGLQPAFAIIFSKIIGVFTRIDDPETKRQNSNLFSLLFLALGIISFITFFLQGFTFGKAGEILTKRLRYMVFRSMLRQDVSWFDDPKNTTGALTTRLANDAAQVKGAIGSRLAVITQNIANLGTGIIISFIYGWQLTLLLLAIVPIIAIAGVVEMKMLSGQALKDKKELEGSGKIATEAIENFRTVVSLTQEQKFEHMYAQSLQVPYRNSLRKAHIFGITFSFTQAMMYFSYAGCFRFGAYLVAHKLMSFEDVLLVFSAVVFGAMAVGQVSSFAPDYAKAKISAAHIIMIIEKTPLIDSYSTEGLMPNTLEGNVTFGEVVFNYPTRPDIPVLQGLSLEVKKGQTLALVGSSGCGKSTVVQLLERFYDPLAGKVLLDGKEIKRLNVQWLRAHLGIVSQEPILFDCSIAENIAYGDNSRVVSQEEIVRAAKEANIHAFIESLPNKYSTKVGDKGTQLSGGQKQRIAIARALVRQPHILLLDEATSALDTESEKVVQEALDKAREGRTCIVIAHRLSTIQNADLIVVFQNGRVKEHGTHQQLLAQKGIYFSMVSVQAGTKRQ
MDR1, sequence (P08183 whole entry): as above
T6 sequence (O15438 whole entry): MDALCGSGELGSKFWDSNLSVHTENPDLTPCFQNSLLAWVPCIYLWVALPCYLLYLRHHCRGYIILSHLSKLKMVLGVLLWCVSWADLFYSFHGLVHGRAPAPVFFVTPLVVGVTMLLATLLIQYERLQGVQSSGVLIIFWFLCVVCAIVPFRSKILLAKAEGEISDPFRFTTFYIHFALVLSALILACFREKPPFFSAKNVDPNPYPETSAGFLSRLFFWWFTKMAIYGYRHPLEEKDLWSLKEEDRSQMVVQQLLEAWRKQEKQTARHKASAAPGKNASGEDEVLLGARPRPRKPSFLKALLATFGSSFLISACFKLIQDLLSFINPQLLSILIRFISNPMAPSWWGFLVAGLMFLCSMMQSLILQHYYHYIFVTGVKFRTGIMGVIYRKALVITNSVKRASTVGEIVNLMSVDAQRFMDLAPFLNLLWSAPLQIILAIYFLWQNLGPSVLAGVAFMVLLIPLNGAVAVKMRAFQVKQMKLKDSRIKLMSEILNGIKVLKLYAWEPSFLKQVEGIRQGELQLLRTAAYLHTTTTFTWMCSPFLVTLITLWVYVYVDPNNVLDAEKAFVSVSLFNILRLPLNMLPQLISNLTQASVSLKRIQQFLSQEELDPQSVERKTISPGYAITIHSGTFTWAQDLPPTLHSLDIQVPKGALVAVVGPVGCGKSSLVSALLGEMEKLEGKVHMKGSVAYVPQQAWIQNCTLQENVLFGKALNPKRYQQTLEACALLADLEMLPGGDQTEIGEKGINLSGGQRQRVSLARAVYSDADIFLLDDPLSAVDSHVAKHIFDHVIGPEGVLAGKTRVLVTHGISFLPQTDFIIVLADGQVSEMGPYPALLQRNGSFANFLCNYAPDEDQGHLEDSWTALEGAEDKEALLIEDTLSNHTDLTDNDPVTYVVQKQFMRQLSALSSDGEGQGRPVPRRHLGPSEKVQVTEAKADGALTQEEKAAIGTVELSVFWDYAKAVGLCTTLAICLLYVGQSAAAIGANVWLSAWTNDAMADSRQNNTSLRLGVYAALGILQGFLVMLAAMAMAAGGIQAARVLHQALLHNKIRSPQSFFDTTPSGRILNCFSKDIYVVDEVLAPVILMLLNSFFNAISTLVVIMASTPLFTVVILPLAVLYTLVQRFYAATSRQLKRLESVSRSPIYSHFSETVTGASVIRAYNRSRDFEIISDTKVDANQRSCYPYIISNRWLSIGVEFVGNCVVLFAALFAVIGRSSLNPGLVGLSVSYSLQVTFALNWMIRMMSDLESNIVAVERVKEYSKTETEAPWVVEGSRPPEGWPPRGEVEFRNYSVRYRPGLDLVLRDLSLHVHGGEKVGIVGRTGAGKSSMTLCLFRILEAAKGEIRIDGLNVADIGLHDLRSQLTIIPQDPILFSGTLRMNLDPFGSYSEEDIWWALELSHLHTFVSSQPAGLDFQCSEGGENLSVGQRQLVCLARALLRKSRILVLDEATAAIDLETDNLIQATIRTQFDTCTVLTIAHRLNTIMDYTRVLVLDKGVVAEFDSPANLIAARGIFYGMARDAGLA

COc1cc2c(cc1Oc1c(Oc3c(O)c(OC)cc4c3C(CC(C)C)N(C)CC4)c(OC)cc3c1C(CC(C)C)N(C)CC3)C(CC(C)C)N(C)CC2 (stereo not shown) [NSC 21075]
Correlation (ABCC5): −0.3650

Cn1c2ccccc2c2ccc3c(c21)C(=O)C=CC3=O [NSC 92937]
Correlation (ABCB6): −0.4335

CCS(=O)(=O)O.CN(C)C(=O)c1cccc(COc2ccc(N3C(N)=NC(N)=NC3(C)C)cc2Cl)c1 [NSC 139105, Baker's soluble antifol, reference compound]
Reversal of resistance by verapamil (MDR1; verapamil, inhibitor of MDR1 transport (Gupta et al., 1988)): reversed by verapamil | Relationship between drug sensitivity and ABCB1 expression (in words) (ABCB1): inversely correlated

COc1ccc2c(c1)c1c(C)c3c[n+](C)ccc3c(C)c1n2C [NSC 155694]
Correlation (ABCC5): −0.4494

COc1cc2cc3c4cc(OC)c(OC)cc4cc[n+]3c(C)c2cc1OC [NSC 156625, Coralyne]
Interaction with MDR1 (MDR1): interact with MDR1 | Correlation (ABCB1): −0.4657

CC(=O)O[C@@H]1C=C(C=O)[C@](O)(C=O)[C@@]2(C)CCCC(C)(C)[C@H]12 [NSC 277293]
Correlation (ABCB6): −0.5055

CC(=O)O[C@@H]1[C@@H](O)[C@H](O[C@H]2[C@H](OC(=O)[C@H]3CC[C@@H]4[C@H](C3)O[C@@]3(C[C@H](OC(=O)/C=C/c5ccccc5)[C@H](C)CO3)[C@]43CO3)O[C@H](C)[C@@H](O)[C@@H]2OC(C)=O)O[C@H](C)[C@H]1O [NSC 328426, phyllanthoside]
Correlation (ABCA1): −0.2806 | Interaction with MDR1 (MDR1): interact with MDR1 | Correlation (ABCB1; Pearson correlation of ABCB1 expression with sensitivity of the 60 cell lines, 1429 compounds, inverse, p < 0.0001): −0.7784

CS(=O)(=O)[O-].Cc1c2cc[n+](C)cc2c(C)c2c1[nH]c1ccccc12 [NSC 352299]
Correlation (ABCC5): −0.4318

Cc1c2cc[n+](Cc3ccc(I)cc3)cc2c(C)c2c1[nH]c1ccccc12 [NSC 604574]
Correlation (ABCC5): −0.4123

C[C@]12CC[C@H]3[C@@H](CCC4=CC(=O)NCC[C@@]43C)[C@@H]1CC[C@@H]2OC(=O)COc1ccc(N(CCCl)CCCl)cc1 [NSC 620480]
Correlation (ABCA9): −0.4846

CCN(CC)c1ccc(/C=C2/C[N+](C)(C)C/C(=C/c3ccc(N(CC)CC)cc3)C2=O)cc1.[I-] [NSC 634791]
Correlation (ABCB1): −0.7900 | Accumulation of the fluorescent compound in MDR1-positive cells vs parental KB-3-1 ([1]; 1.74 μM, 10 min at 37° C.): contain less of the fluorescent compound than the parental KB-3-1 cell line | Effect of PSC 833 on the decreased accumulation ([1]; 2 μM PSC 833): completely reversible

CC1=C(C(=O)Nc2ccccc2)C(c2ccc(N(C)C)cc2)C(C(=O)Nc2ccccc2)=C(C)N1 [NSC 636092]
Correlation (ABCA4): −0.3977

CC[n+]1c(/C=C/c2ccc(N(CCCl)CCCl)cc2)ccc2cc(NC(=O)/C=C/c3ccccc3)ccc21.[I-] [NSC 640085]
Correlation (ABCA1): −0.3580

COC(=O)c1ccccc1NC(=O)C(=O)CC(=O)c1ccccc1NC1=CC(=O)C(=O)c2ccccc21 [NSC 641240]
Correlation (ABCC3): −0.5829 | Correlation (ABCA12): −0.5165

O=C(O)COc1ccc(C(=O)/C(SS/C(C(=O)c2ccc(OCC(=O)O)c(Cl)c2Cl)=C2\C=C(c3ccc(Br)cc3)SS2)=C2/C=C(c3ccc(Br)cc3)SS2)c(Cl)c1Cl [NSC 641281]
Response of ABCC2-overexpressing MDCKII cells vs sham-transfected control [2]: extremely resistant; also recorded: no signs of toxicity even at maximal concentrations

Cc1oc2c(c1C(=O)c1ccccc1)C(=O)c1ccccc1C2=O [NSC 641594]
Correlation (ABCC3): −0.4994 | Correlation (ABCC1): −0.4324

CCCCCCCCCCCCCCCC(=O)OCC1OC(OC)C2NP(=O)(N(CCCl)CCCl)OC1C2O (stereo not shown) [NSC 642915]
Correlation (ABCA9): −0.4289

O=C1C=C(Nc2ccccc2C(=O)CC(=O)C(=O)Nc2cccc(C(F)(F)F)c2)c2ccccc2C1=O [NSC 644751]
Correlation (ABCC3): −0.5748 | Correlation (ABCA12): −0.5643

COC1=C(OC)C(=O)c2cc(C)c(=O)c(C)cc2C1=O [NSC 649666]
Correlation (ABCA12): −0.3757

COc1cc(CNc2ccc(SC)cc2)cc(OC)c1OC [NSC 650771]
Correlation (ABCA4): −0.3792

COc1cc2c(cc1O)CC[C@@H]1[C@@H]2CC[C@]2(C)[C@@H](O)CC[C@@H]12 [NSC 659853]
Correlation (ABCA12): −0.5016

Cc1cc(C)c2c(=O)cc(-c3ccccc3)[nH]c2c1 [NSC 665925]
Correlation (ABCA4): −0.4545

CC1C(c2ccc3c(c2)OCO3)c2cc3c(cc2OC1N1CCOCC1)OCO3 (stereo not shown) [NSC 666222]
Correlation (ABCC1): −0.3675

Cn1c2ccc(F)cc2c2ccc3c(c21)C(=O)C=CC3=O [NSC 668844]
Correlation (ABCG2): −0.4615

COC(=O)CCC(=O)NC1=C(Nc2ccccc2)C(=O)c2ccccc2C1=O [NSC 670762]
Correlation (ABCC1): −0.4326

OCCO[P+]1(OCCO)n2c3ccc2C(c2ccccc2)=C2C=CC(=N2)C(c2ccccc2)=c2ccc(n21)=C(c1ccccc1)C1=NC(=C3c2ccccc2)C=C1 [NSC 682066]
Correlation (ABCA1): −0.3783 | Correlation (ABCB1): −0.7985

C=C1[C@H](OCC(C)C)[C@@H](O)[C@@H](OC(=O)c2cccnc2)C(C)(C)/C=C/[C@H](C)[C@H](OC(C)=O)[C@@]2(O)C[C@@](C)(OC(C)=O)[C@H](OC(=O)c3ccccc3)[C@@H]2[C@H]1OC(C)=O [NSC 688235]
Correlation (ABCA4): −0.3557

CCOC(=O)/C=C(\C(=O)OCC)n1cc(C)c(=O)n(Cc2cnnn2CCCCOC(C)=O)c1=O [NSC 694002]
Correlation (ABCG2): −0.3627 | Pearson's Correlation Coeff (ABCB1): 0.2442

CN(C)c1ccc(/C=c2/c3ccccc3n3c2cc(-c2ccc(Cl)cc2)[n+]3C)cc1.O=S(=O)([O-])C(F)(F)F [NSC 699479]
Correlation (ABCA1): −0.4141
